Values of other authors in PubChem BioAssay AID1259409 (Chemical Carcinogenesis Research Information System (CCRIS), 2018).

Tested on: rodent chemically induced tumor inhibition, incidence and multiplicity
Test: CCRIS tumor inhibitor studies
Details: Carcinogen: N-METHYL-N-NITROSOUREA, 684-93-5, Route [Inhibitor]: ORAL, Promoter: NONE USED

In the case of `CC1=C(/C=C/C(C)=C/C=C/C(C)=C/C(=O)NCCO)C(C)(C)CCC1`, the “tumour outcome (control, treated, inhibition, significance)” value (Dose [Inhibitor]: 2 MMOL/KG DIET DAILY STARTING 12 D AFTER CARCINOGEN TREATMENT THROUGH ABOUT 8 MO AFTER CARCINOGEN DOSE (STUDY DURATION:, Species: RAT, Strain/Sex: F344/MALE, Target Tissue: Type of Lesion: COLON: ADENOMA, Dose [Carcinogen]: 2.5 MG 1/WK FOR 2 WK) is given as 16/39 (41%), 12/30 (40%), 5%, not significant, the “tumour outcome (control, treated, inhibition, significance)” value (Dose [Inhibitor]: 343 MG/KG DIET DAILY STARTING 1 WK AFTER LAST CARCINOGEN TREATMENT AND CONTINUING FOR 6 MO (STUDY DURATION: 9 MO), Species: HAMSTER, Strain/Sex: SYRIAN/MALE, Target Tissue: Type of Lesion: TRACHEA: BENIGN EPITHELIAL NEOPLASM, Dose [Carcinogen]: 0.5% IN 1 ML PHOSPHATE-BUFFERED SALINE 1/WK FOR 12 WK) is given as 6/63 (10%), 6/62 (10%), 0%, not significant and the “tumour outcome (control, treated, inhibition, significance)” value (Dose [Inhibitor]: 343 MG/KG DIET DAILY STARTING 1 WK AFTER LAST CARCINOGEN TREATMENT AND CONTINUING FOR 6 MO (STUDY DURATION: 9 MO), Species: HAMSTER, Strain/Sex: SYRIAN/MALE, Target Tissue: Type of Lesion: TRACHEA: CARCINOMA, Dose [Carcinogen]: 0.5% IN 1 ML PHOSPHATE-BUFFERED SALINE 1/WK FOR 12 WK) is given as 4/63 (6%), 11/62 (18%), -200%, not significant. The “tumour outcome (control, treated, inhibition, significance)” value (Dose [Inhibitor]: 343 MG/KG DIET DAILY STARTING 1 WK AFTER LAST CARCINOGEN TREATMENT AND CONTINUING FOR 6 MO (STUDY DURATION: 9 MO), Species: HAMSTER, Strain/Sex: SYRIAN/MALE, Target Tissue: Type of Lesion: TRACHEA: EPITHELIAL NEOPLASM, Dose [Carcinogen]: 0.5% IN 1 ML PHOSPHATE-BUFFERED SALINE 1/WK FOR 12 WK) was 10/63 (16%), 17/62 (27%), -69%, not significant, the “tumour outcome (control, treated, inhibition, significance)” value (Dose [Inhibitor]: 343 MG/KG IN DIET DAILY FOR 6 MO STARTING 1 WK AFTER FINAL CARCINOGEN DOSE (STUDY DURATION: 9 MO), Species: HAMSTER, Strain/Sex: SYRIAN/MALE, Target Tissue: Type of Lesion: TRACHEA: BENIGN EPITHELIAL NEOPLASM, Dose [Carcinogen]: 0.5% SOLUTION FOR 5 SECOND EXPOSURE 1/WK FOR 12 WK) was 6/63 (10%), 6/62 (10%), 0%, not significant and the “tumour outcome (control, treated, inhibition, significance)” value (Dose [Inhibitor]: 343 MG/KG IN DIET DAILY FOR 6 MO STARTING 1 WK AFTER FINAL CARCINOGEN DOSE (STUDY DURATION: 9 MO), Species: HAMSTER, Strain/Sex: SYRIAN/MALE, Target Tissue: Type of Lesion: TRACHEA: CARCINOMA, Dose [Carcinogen]: 0.5% SOLUTION FOR 5 SECOND EXPOSURE 1/WK FOR 12 WK) was 4/63 (6%), 11/62 (18%), -200%, not significant. For the same compound, the “tumour outcome (control, treated, inhibition, significance)” value (Dose [Inhibitor]: 343 MG/KG IN DIET DAILY FOR 6 MO STARTING 1 WK AFTER FINAL CARCINOGEN DOSE (STUDY DURATION: 9 MO), Species: HAMSTER, Strain/Sex: SYRIAN/MALE, Target Tissue: Type of Lesion: TRACHEA: EPITHELIAL NEOPLASM, Dose [Carcinogen]: 0.5% SOLUTION FOR 5 SECOND EXPOSURE 1/WK FOR 12 WK) was 10/63 (16%), 17/62 (27%), -69%, not significant, the “tumour outcome (control, treated, inhibition, significance)” value (Dose [Inhibitor]: 686 MG/KG DIET DAILY FOR 24 WK STARTING 5 D AFTER LAST DOSE OF CARCINOGEN (STUDY DURATION: 32 WK), Species: RAT, Strain/Sex: F344/MALE, Target Tissue: Type of Lesion: COLON: SARCOMA, Dose [Carcinogen]: 0.5 MG 2/WK FOR 8 WK) was 5/40 (13%), 1/40 (3%), 77%, not calculated and the “tumour outcome (control, treated, inhibition, significance)” value (Dose [Inhibitor]: 686 MG/KG DIET DAILY FOR 24 WK STARTING 5 D AFTER LAST DOSE OF CARCINOGEN (STUDY DURATION: 32 WK), Species: RAT, Strain/Sex: F344/MALE, Target Tissue: Type of Lesion: COLON: TUMOR, Dose [Carcinogen]: 0.5 MG 2/WK FOR 8 WK) was 60%, 68%, -13%, not significant. The “tumour outcome (control, treated, inhibition, significance)” value (Dose [Inhibitor]: 686 MG/KG DIET DAILY FOR 38 WK STARTING 5 D AFTER LAST DOSE OF CARCINOGEN (STUDY DURATION: 44 WK), Species: RAT, Strain/Sex: F344/MALE, Target Tissue: Type of Lesion: COLON: MESOTHELIOMA, Dose [Carcinogen]: 0.5 MG, 2/WK FOR 6 WK STARTING 6 WK PRIOR TO AGENT TREATMENT) was 1/50 (2%), 2/49 (1%), 50%, not calculated, the “tumour outcome (control, treated, inhibition, significance)” value (Dose [Inhibitor]: 686 MG/KG DIET DAILY FOR 38 WK STARTING 5 D AFTER LAST DOSE OF CARCINOGEN (STUDY DURATION: 44 WK), Species: RAT, Strain/Sex: F344/MALE, Target Tissue: Type of Lesion: COLON: TUMOR, Dose [Carcinogen]: 0.5 MG 2/WK FOR 6 WK) was 62%, 61%, 2%, not significant and the “tumour outcome (control, treated, inhibition, significance)” value (Dose [Inhibitor]: 686 MG/KG DIET DAILY FOR 48 WK STARTING 5 D AFTER LAST DOSE OF CARCINOGEN (STUDY DURATION: 52 WK), Species: RAT, Strain/Sex: F344/MALE, Target Tissue: Type of Lesion: COLON: TUMOR, Dose [Carcinogen]: 0.5 MG 2/WK FOR 4 WK) was 31%, 27%, 13%, not significant.
